The results in this text go back to patent publication US7084301B2 (Ranbaxy Laboratories Limited, priority 2003, dated 2006).

For one test, the target named is T1, human α1B-adrenoceptors (Homo sapiens, UniProt P35368).
T1 sequence (P35368 1-520): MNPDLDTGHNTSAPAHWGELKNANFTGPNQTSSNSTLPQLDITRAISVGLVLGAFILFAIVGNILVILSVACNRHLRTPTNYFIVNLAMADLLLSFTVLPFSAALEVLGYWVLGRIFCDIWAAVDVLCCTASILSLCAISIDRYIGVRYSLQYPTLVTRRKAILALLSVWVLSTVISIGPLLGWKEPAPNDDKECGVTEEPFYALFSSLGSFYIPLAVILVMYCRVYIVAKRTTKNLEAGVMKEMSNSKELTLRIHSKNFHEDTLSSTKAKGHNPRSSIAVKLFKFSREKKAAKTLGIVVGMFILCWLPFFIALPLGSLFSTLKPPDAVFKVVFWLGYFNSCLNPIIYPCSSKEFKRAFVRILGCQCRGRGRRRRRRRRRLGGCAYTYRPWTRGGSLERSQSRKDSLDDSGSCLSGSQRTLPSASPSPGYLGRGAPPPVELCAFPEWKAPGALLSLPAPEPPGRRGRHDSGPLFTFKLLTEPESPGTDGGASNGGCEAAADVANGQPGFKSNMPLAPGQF
The experiment in a line: Radioligand-receptor binding assay, human recombinant α1B-adrenoceptor, [3H]prazosin. On the procedure: Chinese hamster ovary (CHO) cells which had been stably transfected with human α1A, α1B, or α1D-adrenoceptors (Keffel et al., Biochem. Biophys. Res. Commun., 2000, 272, 906–11) were cultured in an atmosphere of 5% CO2/95% air at 37° C. in F-12 HAM medium supplemented with 10% heat-inactivated fetal calf serum, 1 mM glutamine, 100 U/ml penicillin and 0.1 mg/ml streptomycin. Selection pressure was maintained by regular addition of geneticin to the culture medium.
Competitive radioligand binding to the cloned subtypes of […] was performed using [^3H]prazosin as the radioligand as described by Michel et al, Br. J. Pharmacol., 98, 883–889 (1989) with minor modifications. Experiments were performed in binding buffer consisting of 50 mM Tris, 10 mM MgCl2 and 0.5 mM EDTA at pH 7.5 in a total assay volume of 1000 μl. The protein content typically was 40–60 μg/assay. The mixtures were incubated at 25° C. for 45 minutes. Incubations were terminated by rapid vacuum filtration over GF/C filters followed by two washes of the filters each with 10 ml ice-cold incubation buffer. Non-specific binding was defined as binding in the presence of 10 μM phentolamine.
The IC50 & Kd were estimated by using the non-linear curve fitting program using G Pad Prism software. The value of inhibition constant Ki was calculated from competitive binding studies by using Cheng & Prusoff equation [Cheng & Prusoff, Biochem. Pharmacol., 22, 3099–3108 (1973)], Ki=IC50/(1+L/Kd), where L is the concentration of [^3H] prazosin used in the particular experiment. Kd of [^3H] prazosin was determined from saturation binding studies. The values were tabulated as mean±SEM of pKi values, where pKi is the −log of Ki value.

The target in test [1] is T2, rat α1B-adrenoceptor (spleen) (Rattus norvegicus, UniProt P15823).
T2 sequence (P15823 1-515): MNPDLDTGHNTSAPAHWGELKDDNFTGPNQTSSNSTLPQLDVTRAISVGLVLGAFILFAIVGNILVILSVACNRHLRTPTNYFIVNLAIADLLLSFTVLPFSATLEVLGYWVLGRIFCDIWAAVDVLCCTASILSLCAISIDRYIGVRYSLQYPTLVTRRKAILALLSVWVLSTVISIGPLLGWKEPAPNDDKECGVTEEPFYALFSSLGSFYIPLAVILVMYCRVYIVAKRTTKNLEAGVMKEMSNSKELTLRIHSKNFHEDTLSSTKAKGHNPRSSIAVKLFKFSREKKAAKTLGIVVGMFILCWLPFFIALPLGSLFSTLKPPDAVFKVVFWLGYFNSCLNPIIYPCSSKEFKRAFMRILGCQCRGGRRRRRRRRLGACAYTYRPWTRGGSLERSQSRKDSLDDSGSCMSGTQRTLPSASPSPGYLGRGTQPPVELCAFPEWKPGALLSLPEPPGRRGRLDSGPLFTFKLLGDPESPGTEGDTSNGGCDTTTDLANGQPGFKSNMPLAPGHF
As to the kind of experiment: In-vitro functional study, agonist-induced contractile response on isolated rat spleen. The class given is biochemical. As for the experimental part:
Aorta, prostate and spleen tissues were isolated from urethane anaesthetized (1.5 gm/kg) male wistar rats. Isolated tissues were mounted in organ bath containing Krebs Henseleit buffer of following compostion (mM): NaCl 118; KCl 4.7; CaCl2 2.5; MgSO4.7H2O 1.2; NaHCO3 25; KH2PO4 1.2; glucose 11.5. Buffer was maintained at 37° C. and aerated with a mixture of 95% O2 and 5% CO2. A resting tension of 2 g (aorta) or 1 g (spleen and prostate) was applied to tissues. Contractile response was monitored using a force displacement transducer and recorded on chart recorders. Tissues were allowed to equilibrate for 2 hours. At the end of equilibration period, concentration response curves to norepinephrine (aorta) and phenylepinephrine (spleen and prostate) were obtained in absence and presence of tested compound (at concentrations of […]). Antagonist affinities were calculated and expressed as pKB vales in Table II.
To compare the differences in pKB at the α1-arenrenoceptor subtypes one-way ANOVA followed by Dunett ‘t’ test was applied. A p<0.05 was considered statistically significant.

A further test deals with D-3 receptors (Homo sapiens, UniProt P35462). The experiment in a line: Radioligand-receptor binding assay, human recombinant D3 receptors, [3H]Spiperone. On the procedure:
Receptor binding assays were performed using human recombinant D3 receptors. […] Non-specific binding was defined by 25 μM S(−)Sulpiride.

For test [2], the system named is anaesthetised normotensive rats. The experiment in a line: Hypotensive effect in anaesthetised normotensive rats. The class given is in vivo, rat. The note with it: for effect on blood pressure / effect on heart rate accompanying fall in blood pressure: anaesthetised normotensive rats, cumulative 0.01-10 μg/kg; for ED20: Effective dose to produce a fall in blood pressure by 20%: urethane-anaesthetised male normotensive rats, cumulative doses via femoral vein. On the procedure:
Male normotensive rats were anaesthetised with urethane (1.2 g/kg, i.p.). Carotid artery and femoral vein were cannulated for recording blood pressure and administration of test compounds respectively. Trachea was cannulated to maintain the airway patency. Rats were divided into two groups of 10 rats each. Group I received compound of Formula I, and Group II received Tamsulosin. Compounds were administered cumulatively at dose level of 0.01, 0.03, 0.1, 0.3, 1 & 10 μg/kg and effects on blood pressure and heart rate were monitored. Each subsequent dose in cumulative dose range was administered after previous response had stabilized.
Blood pressure and heart rate were recorded before and after drug treatment on a Grass polygraph using a Statham pressure transducer and tachograph. Effect on blood pressure was expressed as percentage change from the basal level. ED20 was calculated by fitting the cumulative dose response data in non-linear regression analysis and the value was taken from the curve. Effect on heart rate was expressed as change in beats/min.
To compare the difference amongst the dose groups one-way ANOVA followed by Dunett ‘t’ test was applied. A p of <0.05 was considered statistically significant.

Read-outs that look alike come from different tables or passages of the source.

Chain of D-3 receptors (P35462 whole entry): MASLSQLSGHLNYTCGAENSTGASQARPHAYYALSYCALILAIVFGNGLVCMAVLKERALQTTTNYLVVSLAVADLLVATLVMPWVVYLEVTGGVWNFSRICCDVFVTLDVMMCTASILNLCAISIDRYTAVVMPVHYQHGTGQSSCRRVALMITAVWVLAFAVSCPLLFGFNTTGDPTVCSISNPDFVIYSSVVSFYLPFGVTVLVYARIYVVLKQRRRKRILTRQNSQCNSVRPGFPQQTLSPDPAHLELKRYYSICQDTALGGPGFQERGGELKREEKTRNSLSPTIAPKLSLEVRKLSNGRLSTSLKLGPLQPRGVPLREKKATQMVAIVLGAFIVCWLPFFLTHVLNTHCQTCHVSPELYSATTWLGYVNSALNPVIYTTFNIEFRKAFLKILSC

In the case of `CCOc1ccccc1OCCN[C@H](C)Cc1ccc(O)c(S(N)(=O)=O)c1` [Formula I, R (−)-5-[2-[[2-(2-ethoxyphenoxy)ethyl]amino]propyl]-2-hydroxybenzenesulfonamide], the Ki at human α1B-adrenoceptors was 0.324 nM. In test [1], this compound showed a Kb of 0.501 nM. Besides, the Ki at D-3 receptors is 1.78 nM. The “fold greater α1A versus D3 selectivity as compared to tamsulosin” value at D-3 receptors (Table I and IV) is listed as 14 fold. Moreover, at D-3 receptors (human recombinant receptors), the “fold lower affinity for D3 receptors than tamsulosin” value is reported as 6 fold. Moreover, in test [2], the “effect on blood pressure” value is given as “dose dependent fall in blood pressure”, the “effect on heart rate accompanying fall in blood pressure” value is given as “increase in heart rate” and the “ED20: Effective dose to produce a fall in blood pressure by 20%” value stood at 0.52 µg/kg.
Turning to `CCOc1ccccc1OCCNC(C)Cc1ccc(OC)c(S(N)(=O)=O)c1` (single isomer, unassigned; (-)) [Tamsulosin, (−) isomer of 5-[2-[2-(2-ethoxyphenoxy)ethylamino]-2-methylethyl]-2-methoxybenzene sulfonamide, reference compound], the Ki at human α1B-adrenoceptors (human recombinant receptors in CHO cells, mean ± SEM, read-out: pKi α1B (converted)) was 0.692 nM. Besides, the Kb in test [1] (rat spleen, phenylepinephrine-induced contraction, *p < 0.05 vs pKB at prostate tissue, read-out: pKB α1B (converted)) was 0.275 nM. In addition, the Ki on D-3 receptors was 0.282 nM. Also, in test [2], the “effect on blood pressure” value is “dose dependent fall in blood pressure”, the “effect on heart rate accompanying fall in blood pressure” value is reported as “decrease in the heart rate” and the “ED20: Effective dose to produce a fall in blood pressure by 20%” value amounted to 0.3 µg/kg.
